The record followed here is ChEMBL document CHEMBL1909046, “DrugMatrix in vitro pharmacology data”.

One may read the IC50 as the concentration that gives 50% inhibition. A word on the Ki: it is a dissociation constant, usually derived from enzyme kinetics or from competition with a known ligand.

The nature of test [1]: DRUGMATRIX: Calcium Channel Type L, Dihydropyridine radioligand binding (ligand: [3H] Nitrendipine). The note with it: Not Active = under 50% inhibition at 10 µM. The class given is cell membranes, Rattus norvegicus, Wistar, Cerebral cortex, Membrane.
The target of test [2] is T1, Thromboxane-A synthase (Homo sapiens, UniProt P24557).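 Note: enzyme inhibition assay with PGH2 supplied as substrate; in other assays of this panel Not Active means under 50% inhibition at 10 µM.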
T1 sequence (P24557 whole entry): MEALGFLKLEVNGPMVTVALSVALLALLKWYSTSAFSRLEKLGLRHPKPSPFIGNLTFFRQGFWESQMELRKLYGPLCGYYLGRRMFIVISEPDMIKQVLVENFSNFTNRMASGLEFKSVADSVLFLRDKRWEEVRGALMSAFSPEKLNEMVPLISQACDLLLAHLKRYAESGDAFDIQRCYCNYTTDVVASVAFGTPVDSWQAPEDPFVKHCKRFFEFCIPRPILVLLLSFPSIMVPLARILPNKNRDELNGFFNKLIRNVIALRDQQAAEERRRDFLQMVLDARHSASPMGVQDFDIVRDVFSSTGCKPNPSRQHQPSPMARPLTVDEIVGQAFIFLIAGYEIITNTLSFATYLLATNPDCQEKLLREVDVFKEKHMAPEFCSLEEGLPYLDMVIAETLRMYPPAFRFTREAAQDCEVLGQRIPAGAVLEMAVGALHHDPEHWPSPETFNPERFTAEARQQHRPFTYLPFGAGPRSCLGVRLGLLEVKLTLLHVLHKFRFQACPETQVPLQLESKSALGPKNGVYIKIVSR
Briefly: biochemical. The class given is tissue-based, Platelet.

Test [3] concerns the target Carbonic anhydrase 2 (Homo sapiens, UniProt P00918). Nature of the test: DRUGMATRIX: Carbonic Anhydrase II enzyme inhibition (substrate: 4-Nitrophenyl acetate (4-NPA)). It counts as tissue-based, Erythrocyte. The settings on record: erythrocyte; Not Active = under 50% inhibition at 10 µM.
Test [4] has as its target T2, Neuropeptide Y receptor type 2 (Homo sapiens, UniProt P49146). Note: in other assays of this panel Not Active means under 50% inhibition at 10 µM.
T2 sequence (P49146 whole entry): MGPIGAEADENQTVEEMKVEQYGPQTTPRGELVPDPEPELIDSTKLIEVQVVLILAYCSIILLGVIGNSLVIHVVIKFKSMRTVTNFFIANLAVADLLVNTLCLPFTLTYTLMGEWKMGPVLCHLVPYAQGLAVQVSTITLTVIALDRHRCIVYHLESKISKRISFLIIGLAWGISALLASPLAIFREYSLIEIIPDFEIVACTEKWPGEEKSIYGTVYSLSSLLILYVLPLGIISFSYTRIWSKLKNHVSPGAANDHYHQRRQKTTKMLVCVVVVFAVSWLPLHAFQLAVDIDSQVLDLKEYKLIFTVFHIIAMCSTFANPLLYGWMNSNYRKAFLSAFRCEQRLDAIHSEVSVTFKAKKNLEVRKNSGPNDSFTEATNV
The class given is cell membranes, Membrane. The note with it: kan-ts.

Test [5] in a line: DRUGMATRIX: Platelet-Derived Growth Factor (PDGF) radioligand binding (ligand: [125I] PDGF). It counts as cell-based. The note with it: nih3t3; Not Active = under 50% inhibition at 10 µM.
For test [6], the target named is Mitogen-activated protein kinase 3 (Homo sapiens, UniProt P27361). Nature of the test: DRUGMATRIX: Protein Serine/Threonine Kinase, ERK1 enzyme inhibition (substrate: Myelin Basic Protein). Set-up: species or system Escherichia coli. The settings on record: Not Active = under 50% inhibition at 10 µM.
Sequence of Mitogen-activated protein kinase 3 (P27361 whole entry): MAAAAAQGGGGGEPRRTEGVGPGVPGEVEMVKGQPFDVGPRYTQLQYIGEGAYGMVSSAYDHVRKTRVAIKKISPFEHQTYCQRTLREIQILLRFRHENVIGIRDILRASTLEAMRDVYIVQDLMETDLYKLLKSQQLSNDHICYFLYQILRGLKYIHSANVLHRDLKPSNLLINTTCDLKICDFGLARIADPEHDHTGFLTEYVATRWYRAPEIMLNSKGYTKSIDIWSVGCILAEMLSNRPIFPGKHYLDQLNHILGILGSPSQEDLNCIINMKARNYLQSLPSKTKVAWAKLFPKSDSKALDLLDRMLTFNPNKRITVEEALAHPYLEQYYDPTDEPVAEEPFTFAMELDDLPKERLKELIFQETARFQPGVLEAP
Test [7] can be described thus: DRUGMATRIX: Purinergic P2X radioligand binding (ligand: [3H] alpha, beta-Methylene-ATP). The note with it: Not Active = under 50% inhibition at 10 µM. It counts as cell membranes, Oryctolagus cuniculus, New Zealand albino, Urinary bladder, Membrane.

On to `CC[C@H](C)[C@@H](CO[C@@H](Cc1ccccc1)C(=O)N[C@@H](CCS(C)(=O)=O)C(=O)OC(C)C)NC[C@@H](N)CS`, for which the half-inhibitory concentration (IC50) in test [1] (read-out: IC50) was 4500 nM; in test [2] (platelet), “Not Active”; in test [3] it was “Not Active”; in test [4], “Not Active”; in test [5], “Not Active”; in test [6], “Not Active”. In addition, in test [7], the IC50 entry is “Not Active”. Moreover, the Ki was 2890 nM in test [1] (read-out: Ki), “Not Active” in test [5] and “Not Active” in test [7].

With `Nc1nc(N)c2nc(-c3ccccc3)c(N)nc2n1`, the IC50 entry in test [1], in test [2] (platelet), in test [3], in test [4], in test [5] and in test [6] was “Not Active” in each case. Besides, the IC50 entry in test [7] was “Not Active”. The Ki entry in test [1], in test [5] and in test [7] was “Not Active” throughout.

Turning to `CCN(CC)C(=S)SSC(=S)N(CC)CC`, the IC50 result was “Not Active” in test [1]; “Not Active” in test [2] (platelet); “Not Active” in test [3]; “Not Active” in test [4]; “Not Active” in test [5]; 1510 nM in test [6] (read-out: IC50). For the same molecule, the IC50 entry in test [7] was “Not Active”. In addition, the Ki entry in test [1], in test [5] and in test [7] was “Not Active” in each case.

As to `CN(C)CCC=C1c2ccccc2COc2ccccc21` [DOXEPIN], the IC50 entry in test [2] (platelet), in test [3], in test [4] and in test [6] was “Not Active” each time.

As to `O=C(c1ccccc1)c1ccc2n1CCC2C(=O)O` (stereo not given) [KETOROLAC], the IC50 entry in test [1], in test [2] (platelet), in test [3], in test [4], in test [5] and in test [6] was “Not Active” in each case. The IC50 result in test [7] is “Not Active”. The Ki entry in test [1], in test [5] and in test [7] was “Not Active” in each case.

Regarding `CCOC(=O)C1=C(C)NC(C)=C(C(=O)OCC)C1c1ccccc1/C=C/C(=O)OC(C)(C)C` [LACIDIPINE], the IC50 was 0.4 nM in test [1] (read-out: IC50); 1690 nM in test [2] (read-out: IC50); “Not Active” in test [3]; “Not Active” in test [4]; “Not Active” in test [5]; “Not Active” in test [6]. Further, in test [7], the IC50 result is reported as “Not Active”. The Ki in test [1] (read-out: Ki) was 0.257 nM; in test [5] it was “Not Active”; in test [7], “Not Active”.

On to `CC(O)C(=O)O` (stereo not given) [LACTIC ACID], for which the IC50 result in test [1], in test [2] (platelet), in test [3], in test [4], in test [5] and in test [6] was “Not Active” each time. In test [7], the IC50 entry is listed as “Not Active”. The Ki result in test [1], in test [5] and in test [7] was “Not Active” in each case.

As to `CNCCCC12CCC(c3ccccc31)c1ccccc12` [MAPROTILINE], the concentration for half-maximal inhibition (IC50) entry in test [2] (platelet), in test [3], in test [4] and in test [6] was “Not Active” throughout.

Consider `Cc1cc2c(s1)Nc1ccccc1N=C2N1CCN(C)CC1` [OLANZAPINE], for which the IC50 result in test [2] (platelet), in test [3], in test [4] and in test [6] was “Not Active” throughout.

Take `Cc1ccnc(NS(=O)(=O)c2ccc(N)cc2)n1` [SULFAMERAZINE]: the half-inhibitory concentration (IC50) entry in test [1], in test [2] (platelet), in test [4], in test [5], in test [6] and in test [7] was “Not Active” throughout. The Ki result in test [1], in test [5] and in test [7] was “Not Active” throughout.

For the molecule `CCN1CCCC1CNC(=O)c1cc(S(N)(=O)=O)ccc1OC` (stereo not given) [SULPIRIDE], the IC50 result in test [1], in test [2] (platelet), in test [4], in test [5], in test [6] and in test [7] was “Not Active” each time. Also, the inhibition constant (Ki) entry in test [1], in test [5] and in test [7] was “Not Active” in each case.
